Holding throughout (type): binding, human
One assay addresses T1, hMC3-R.
T1 construct: expressed in transfected cells; host or cells: HEK-293
Briefly: Competitive inhibition assay using [I125]-NDP-α-MSH, hMC3-R membranes. Particulars: read-out: Ki (nM) (NDP-α-MSH) MC3-R. An outline of the steps: (§1)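 Membranes from HEK-293 cells expressing hMC3-R, hMC4-R or hMC5-R, or from mouse B-16 melanoma cells (MC1-R), with 0.2–0.4 nM [125I]-NDP-α-MSH in 50 mM HEPES pH 7.2 with Mg2+, Ca2+, K+. Test compound typically 1 μM; 90 min, room temperature; filtration, gamma counting. Percent inhibition vs specific binding (1 μM α-MSH), triplicate mean, negatives as 0%.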

The target in a further assay is T2, hMC5-R.
T2 construct: expressed in transfected cells; host or cells: HEK-293
Briefly: Competitive inhibition assay using [I125]-NDP-α-MSH, hMC5-R membranes. Particulars: read-out: Ki (nM) (NDP-α-MSH) MC5-R. An outline of the steps: as §1

Assay [1] relates to T3, hMC4-R.
T3 construct: expressed in transfected cells; host or cells: HEK-293
Particulars: for Inhibition at 1 μM (AgRP) MC4-R: 1 μM compound. An outline of the steps: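 Membranes from hMC4-R-expressing cells incubated 1 h at 37 °C with 0.2 nM [I^125]-AgRP (83-132) and increasing compound in 25 mM HEPES pH 7.5, 100 mM NaCl, 2 mM CaCl2, 2 mM MgCl2, 0.3 mM 1,10-phenanthroline, 0.5% BSA. Filtration, gamma counting; specific binding kept ≤10% of added counts.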

Assay [2] has as its target T3, hMC4-R. The experiment in a line: Competitive inhibition assay using [I125]-NDP-α-MSH, hMC4-R membranes.
The mark [3] stands for this setting: MC4-R membranes, Table 1, read-out: Ki (nM) I125-AgRP.
[4] abbreviates: MC4-R membranes, Table 1, read-out: Ki (nM) I125-NPD-α-MSH.
[5] abbreviates: read-out: Ki (nM) (NDP-α-MSH) MC4-R.

Like-named read-outs stand apart in the source and are kept apart here.

Usually Ki stands for the equilibrium dissociation constant of an inhibitor or competing ligand from its target. Broadly, the Inhibition is the drop in the measured response relative to a control, in per cent. Low readings indicate a response near the control, high ones a response far below the control. Consider `CC(=O)N[C@H](Cc1ccc(C)cc1C)C(=O)N1C[C@@H](C)N(CCc2ccc3ccccc3c2)C[C@@H]1CCCNC(=N)N` [Example 26, N-{1(R)-(2,4-Dimethyl-benzyl)-2-[2(S)-(3-guanidino-propyl)-5(R)-methyl-4-(2-naphthalen-2-yl-ethyl)-piperazin-1-yl]-2-oxo-ethyl}-acetamide], for which the Ki on hMC3-R worked out at 74 nM; on hMC5-R, 43 nM; at hMC4-R [1] (setting [3]), 3 nM; at hMC4-R [1] (read-out: Ki (nM) (AgRP) MC4-R), 0.18 nM; on hMC4-R [2] (setting [4]), 1 nM; at hMC4-R [2] (setting [5]), 1 nM. The “Inhibition at 1 μM (AgRP) MC4-R” value in the assay with hMC4-R [1] was 100%.
As for `Cc1ccc(C[C@@H](N)C(=O)N2C[C@@H](C)N(CCc3ccc4ccccc4c3)C[C@@H]2CCCNC(=N)N)c(C)c1` [Example 28, N-{3-[1-[2(R)-Amino-3-(2,4-dimethyl-phenyl)-propionyl]-5(R)-methyl-4-(2-naphthalen-2-yl-ethyl)-piperazin-2(S)-yl]-propyl}-guanidine], the Ki at hMC3-R turned out to be 167 nM; at hMC5-R it was 665 nM; on hMC4-R [1] (setting [3]) it was 3 nM; at hMC4-R [1] (read-out: Ki (nM) (AgRP) MC4-R) it was 3 nM. The “Inhibition at 1 μM (AgRP) MC4-R” value in the assay with hMC4-R [1] is given as 100%. For the same compound, the “attenuation of binding of α-MSH and AgRP to MC4-R” value in the assay on hMC4-R [2] (both ligands (NDP-α-MSH and AgRP), summary) was “attenuate the binding of both α-MSH and AgRP to MC4-R”.
On to `CC(C)C[C@@H]1CN(C(=O)[C@H](N)Cc2ccc(Cl)cc2Cl)[C@@H](CCCNC(=N)N)CN1CCc1ccc2ccccc2c1` [Example 4, N-{3-[1-[2(R)-Amino-3-(2,4-dichloro-phenyl)-propionyl]-5(R)-isobutyl-4-(2-naphthalen-2-yl-ethyl)-piperazin-2(S)-yl]-propyl}-guanidine], for which the inhibition constant Ki at hMC3-R came out at 87 nM; at hMC5-R, 160 nM; at hMC4-R [1] (setting [3]) it was 6 nM; on hMC4-R [1] (read-out: Ki (nM) (AgRP) MC4-R), 6 nM; on hMC4-R [2] (setting [4]), 5 nM; on hMC4-R [2] (setting [5]), 5 nM. Besides, the “Inhibition at 1 μM (AgRP) MC4-R” value in the assay with hMC4-R [1] worked out at 100%.

The values are drawn from US20090076029A1 (Palatin Technologies, Inc., priority 2007, published 2009).
